Assay results from PubChem BioAssay AID1919006 (Molecular Pharmacology Branch, DTP, NCI, 2023).
Several values for one entry are separate records, joined by “and”; a condition that tells them apart may be missing. Equal values may be shown once. Values belong to the compound of their own block, whether it stands above or below them.

Test system: 885512-296-R-J2-PDC complex spheroid growth, % test/control
Experiment: Anticancer human tumor 885512-296-R-J2-PDC patient-derived breast carcinoma cell line growth inhibition [AhR]
Settings: for viability, T/C: stronger effect = lower value
Source text: Multicellular complex tumor spheroid response to aryl hydrocarbon receptor antagonists in combination with a variety of drugs and investigational agents in selected tumor cell lines
The current study was undertaken to assess response to aryl hydrocarbon receptor antagonists in combination with standard-of-care drugs and investigational agents in solid tumor complex spheroid models. Complex spheroids include a stromal component modeled by human endothelial cells (HUVEC) and fibroblasts modeled by human mesenchymal stem cells (MSCs). The concentration ranges selected for each drug and investigational agent were based upon clinically achievable concentrations if the clinical Cmax of the agent was known.
Compounds. The drugs and investigational agents: BAY 2416964 (NSC825713), GNF351 (NSC835774), CH-223191 (NSC835775), CPI-455 (NSC825282), aza-TdCyd (NSC777586), decitabine (NSC127716), belinostat (NSC758774), entinostat (NSC756642), pevonedistat (NSC761192), tazemetostat (NSC777109), talazoparib (NSC765396), olaparib (NSC753686), selinexor (NSC780203), nedisertib (M3814, NSC802822), bortezomib (NSC756655), venetoclax (NSC766270), doxorubicin (NSC123127), elimusertib (BAY189344, NSC800525), ceralasertib (AZD6738, NSC777638), TAK-243 (NSC785004), alisertib (NSC759677), etoposide (NSC141540), topotecan (NSC609699), eribulin (NSC707389), gemcitabine (NSC613327), carboplatin (NSC241240), cisplatin (NSC119875), and SN-38 (NSC673596) were obtained from the National Cancer Institute (NCI) Developmental Therapeutics Program Chemical Repository (32). The FDA-approved anticancer drug set is available from the Developmental Therapeutics Program at https://dtp.cancer.gov/organization/dscb/obtaining/available plates.htm. […] The stock solutions were prepared in dimethyl sulfoxide (DMSO, Sigma-Aldrich, St. Louis, MO, cat. D2650), except for the platinum compounds which were prepared in saline (Quality Biological, Gaithersburg, MD, cat. 114-055-101), at 800-fold the tested concentration and stored at -70 degrees C prior to their use. All drugs and investigational agents were tested over a range starting from a high concentration at or near the clinical Cmax and decreasing in half-log increments. If the clinical Cmax for an agent had not been determined, the highest concentration tested was 10 microM (Table 1).
Cell Culture. All cells were maintained in an incubator at 37 degrees C and 5% CO2 with 95% humidity. The PDC lines were cultured according to standard operating procedures established by the NCI PDMR (https://pdmr.cancer.gov). Briefly, all PDCs were thawed and cultured in Matrigel-coated flasks prepared with a working solution of 1X Ham's F-12 nutrient mix, without supplementation (Invitrogen, Waltham, MA, cat. 11765054), 100 U/mL penicillin-streptomycin (Invitrogen, cat. 15140122), and 2.5% Matrigel (Corning Inc., Corning, NY, cat. 354248) for the first three passages. All PDCs were cultured in complete DMEM/F-12 media containing advanced DMEM/F-12 (Invitrogen, cat. 12634028), 4.9% defined fetal bovine serum, heat inactivated (HyClone Laboratories Inc., Logan, UT, cat. SH30070.03HI), 389 ng/mL hydrocortisone (Sigma-Aldrich, cat. H4001), 9.7 ng/mL human EGF recombinant protein (Invitrogen, cat. PHG0313), 23.4 microg/mL adenine (Sigma-Aldrich, cat. A2786), 97.3 U/mL penicillin-streptomycin (Invitrogen, cat. 15140122), 1.9 mM L-glutamine (Invitrogen, cat. 25030081), and 9.7 microM Y-27632 dihydrochloride (Tocris Bioscience, Bristol, United Kingdom, cat. 1254). The PDCs were cultured in complete DMEM/F12 media without 10 microM Y-27632 dihydrochloride for at least two passages prior to the screen. The established cell lines NCI-H1341 and […] were cultured in DMEM/F-12, HEPES (Invitrogen, cat. 11330032), 5% defined fetal bovine serum (HyClone Laboratories Inc., cat. SH30070.03), ITS premix universal culture supplement [insulin (5 microg/mL), transferrin (5 microg/mL), and selenious acid (5 ng/mL)] […]

[1] = curve of first compound, second compound 0.1 µM
[2] = curve of first compound, second compound 0.316 µM
[3] = curve of first compound, second compound 1 µM
[4] = curve of first compound, second compound 3.16 µM
[5] = curve of first compound, second compound 10 µM
[6] = second compound 0.1 µM, first compound 0.0316 µM
[7] = second compound 0.1 µM, first compound 0.1 µM
[8] = second compound 0.1 µM, first compound 0.316 µM
[9] = second compound 0.1 µM, first compound 1 µM
[10] = second compound 0.1 µM, first compound 3.16 µM
[11] = second compound 0.1 µM, first compound 10 µM
[12] = second compound 0.316 µM, first compound 0.0316 µM
[13] = second compound 0.316 µM, first compound 0.1 µM
[14] = second compound 0.316 µM, first compound 0.316 µM
[15] = second compound 0.316 µM, first compound 1 µM
[16] = second compound 0.316 µM, first compound 3.16 µM
[17] = second compound 0.316 µM, first compound 10 µM
[18] = second compound 1 µM, first compound 0.0316 µM
[19] = second compound 1 µM, first compound 0.1 µM
[20] = second compound 1 µM, first compound 0.316 µM
[21] = second compound 1 µM, first compound 1 µM
[22] = second compound 1 µM, first compound 3.16 µM
[23] = second compound 1 µM, first compound 10 µM
[24] = second compound 3.16 µM, first compound 0.0316 µM
[25] = second compound 3.16 µM, first compound 0.1 µM
[26] = second compound 3.16 µM, first compound 0.316 µM
[27] = second compound 3.16 µM, first compound 1 µM
[28] = second compound 3.16 µM, first compound 3.16 µM
[29] = second compound 3.16 µM, first compound 10 µM
[30] = second compound 10 µM, first compound 0.0316 µM
[31] = second compound 10 µM, first compound 0.1 µM
[32] = second compound 10 µM, first compound 0.316 µM
[33] = second compound 10 µM, first compound 1 µM
[34] = second compound 10 µM, first compound 3.16 µM
[35] = second compound 10 µM, first compound 10 µM
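Further: spheroids exposed to compounds for seven days.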

IC50 (curve of compound): 129 nM and 160 nM and 239 nM
Compound: Nc1ncn(C2CC(O)C(CO)S2)c(=O)n1 (configuration not stated)
viability, T/C (compound 0.000949 µM): 109% and 103% and 93%
viability, T/C (compound 0.003 µM): 93.6% and 108% and 103%
viability, T/C (compound 0.00949 µM): 96.9% and 120% and 104%
viability, T/C (compound 0.03 µM): 89.1% and 99.3% and 116%
viability, T/C (compound 0.0949 µM): 56.2% and 61.2% and 75.9%
viability, T/C (compound 0.3 µM): 31.1% and 37% and 43.6%

IC50 [1]: 1010 nM
IC50 [2]: 1340 nM
IC50 [3]: 680 nM
IC50 [4]: 153 nM
IC50 [5]: < 31.6 nM
Compound: O=C(C=Cc1cccc(S(=O)(=O)Nc2ccccc2)c1)NO + Cc1cncc(-c2nc(NCCc3c[nH]c4ccccc34)c3ncn(C(C)C)c3n2)c1
viability, T/C [6]: 77.7%
viability, T/C [7]: 93.9%
viability, T/C [8]: 70.5%
viability, T/C [9]: 45%
viability, T/C [10]: 30.8%
viability, T/C [11]: 7.26%
viability, T/C [12]: 86.3%
viability, T/C [13]: 80.5%
viability, T/C [14]: 74.2%
viability, T/C [15]: 50%
viability, T/C [16]: 37.5%
viability, T/C [17]: 7.14%
viability, T/C [18]: 96.1%
viability, T/C [19]: 72.5%
viability, T/C [20]: 65.2%
viability, T/C [21]: 41.1%
viability, T/C [22]: 31.1%
viability, T/C [23]: 9.39%
viability, T/C [24]: 52.2%
viability, T/C [25]: 62%
viability, T/C [26]: 39.5%
viability, T/C [27]: 31.8%
viability, T/C [28]: 21.8%
viability, T/C [29]: 10.2%
viability, T/C [30]: 20.6%
viability, T/C [31]: 20.6%
viability, T/C [32]: 19.5%
viability, T/C [33]: 16%
viability, T/C [34]: 12.6%
viability, T/C [35]: 5.42%

IC50 [1]: < 0.949 nM
IC50 [2]: < 0.949 nM
IC50 [3]: < 0.949 nM
IC50 [4]: < 0.949 nM
IC50 [5]: < 0.949 nM
Compound: CCc1c2c(nc3ccc(O)cc13)-c1cc3c(c(=O)n1C2)COC(=O)[C@]3(O)CC + CC(CO)NC(=O)c1cc(-c2ccc(Cl)cc2)nn(-c2cnn(C)c2)c1=O
viability, T/C (second compound 0.1 µM, first compound 0.000949 µM): 9.08%
viability, T/C (second compound 0.1 µM, first compound 0.003 µM): 7.28%
viability, T/C (second compound 0.1 µM, first compound 0.00949 µM): 5.78%
viability, T/C (second compound 0.1 µM, first compound 0.03 µM): 3.29%
viability, T/C (second compound 0.1 µM, first compound 0.0949 µM): 2.16%
viability, T/C (second compound 0.1 µM, first compound 0.3 µM): 1.46%
viability, T/C (second compound 0.316 µM, first compound 0.000949 µM): 8.34%
viability, T/C (second compound 0.316 µM, first compound 0.003 µM): 6.02%
viability, T/C (second compound 0.316 µM, first compound 0.00949 µM): 3.71%
viability, T/C (second compound 0.316 µM, first compound 0.03 µM): 3.2%
viability, T/C (second compound 0.316 µM, first compound 0.0949 µM): 1.99%
viability, T/C (second compound 0.316 µM, first compound 0.3 µM): 1.09%
viability, T/C (second compound 1 µM, first compound 0.000949 µM): 10.7%
viability, T/C (second compound 1 µM, first compound 0.003 µM): 7.68%
viability, T/C (second compound 1 µM, first compound 0.00949 µM): 4.79%
viability, T/C (second compound 1 µM, first compound 0.03 µM): 3.71%
viability, T/C (second compound 1 µM, first compound 0.0949 µM): 2.42%
viability, T/C (second compound 1 µM, first compound 0.3 µM): 1.92%
viability, T/C (second compound 3.16 µM, first compound 0.000949 µM): 10.8%
viability, T/C (second compound 3.16 µM, first compound 0.003 µM): 9.5%
viability, T/C (second compound 3.16 µM, first compound 0.00949 µM): 4.77%
viability, T/C (second compound 3.16 µM, first compound 0.03 µM): 4.01%
viability, T/C (second compound 3.16 µM, first compound 0.0949 µM): 2.56%
viability, T/C (second compound 3.16 µM, first compound 0.3 µM): 2.05%
viability, T/C (second compound 10 µM, first compound 0.000949 µM): 13.8%
viability, T/C (second compound 10 µM, first compound 0.003 µM): 12.5%
viability, T/C (second compound 10 µM, first compound 0.00949 µM): 6.57%
viability, T/C (second compound 10 µM, first compound 0.03 µM): 4.99%
viability, T/C (second compound 10 µM, first compound 0.0949 µM): 2.67%
viability, T/C (second compound 10 µM, first compound 0.3 µM): 2.21%

IC50 [1]: 5920 nM
IC50 [2]: 5820 nM
IC50 [3]: 5520 nM
IC50 [4]: 4790 nM
IC50 [5]: 3440 nM
Compound: O=C(c1cc(Cc2n[nH]c(=O)c3ccccc23)ccc1F)N1CCN(C(=O)C2CC2)CC1 + Cc1ccccc1N=Nc1ccc(NC(=O)c2ccnn2C)c(C)c1
viability, T/C [6]: 118%
viability, T/C [7]: 135%
viability, T/C [8]: 147%
viability, T/C [9]: 117%
viability, T/C [10]: 83.7%
viability, T/C [11]: 22.6%
viability, T/C [12]: 138%
viability, T/C [13]: 145%
viability, T/C [14]: 138%
viability, T/C [15]: 130%
viability, T/C [16]: 80%
viability, T/C [17]: 23.4%
viability, T/C [18]: 121%
viability, T/C [19]: 133%
viability, T/C [20]: 132%
viability, T/C [21]: 109%
viability, T/C [22]: 80.4%
viability, T/C [23]: 18.7%
viability, T/C [24]: 110%
viability, T/C [25]: 103%
viability, T/C [26]: 111%
viability, T/C [27]: 101%
viability, T/C [28]: 66.6%
viability, T/C [29]: 20.8%
viability, T/C [30]: 67.1%
viability, T/C [31]: 59.5%
viability, T/C [32]: 66.4%
viability, T/C [33]: 70.8%
viability, T/C [34]: 52.6%
viability, T/C [35]: 17.5%
